pKd: −log10 of the molar value. Like-named read-outs stand apart in the source and are kept apart here. *1 amine or outer side, *2 acyl side, *3 side chain or, on linkers, in order; H or OH if unused. Where a SMILES comes first, the peptide text is derived from it. Bridges are numbered along the chain shown (N, C = ends). [ ]: non-standard residue; d: D form. The star is where a group is joined. hPhe(3-Cl-4-CF3) = N[C@@H](CCc1ccc(C(F)(F)F)c(Cl)c1)C(=O)O; NPrPhe(4-CF3) = CCCN[C@@H](Cc1ccc(C(F)(F)F)cc1)C(=O)O; X42 = Cc1ccc(C[C@@H](C(=O)[*:2])N(CC2CCC2)[*:1])cc1; NMeGly(cPent) = CN[C@H](C(=O)O)C1CCCC1; NMeD = CN[C@@H](CC(=O)O)C(=O)O; NMeL = CN[C@@H](CC(C)C)C(=O)O; Morpholide = C1CN(*)CCO1; NMeA = CN[C@@H](C)C(=O)O; Ac5c = NC1(C(=O)O)CCCC1; Aze = O=C(O)[C@@H]1CCN1; Ac3c = NC1(C(=O)O)CC1; Sar = CNCC(=O)O
Assays:
[1] = target: GDP-bound KRAS wild-type protein (Homo sapiens, UniProt P01116); assay: Binding to KRAS by surface plasmon resonance (SPR), Single Cycle Kinetics; details: GDP-bound KRAS wild-type protein, read-out: KRAS KD
[2] = target: GDP-bound NRAS wild-type protein (Homo sapiens, UniProt P01111); assay: Binding to NRAS by surface plasmon resonance (SPR), Single Cycle Kinetics; details: SPR; for NRAS/KRAS (ratio of KD value for NRAS to KD value for KRAS) / NRAS/KRAS (ratio of KD value with respect to NRAS to KD value with respect to KRAS): GDP-bound NRAS wild-type protein vs GDP-bound KRAS wild-type protein
[3] = target: GDP-bound HRAS wild-type protein (Homo sapiens, UniProt P01112); assay: Binding to HRAS by surface plasmon resonance (SPR), Single Cycle Kinetics; details: SPR; for HRAS/KRAS (ratio of KD value for HRAS to KD value for KRAS) / HRAS/KRAS (ratio of KD value with respect to HRAS to KD value with respect to KRAS): GDP-bound HRAS wild-type protein vs GDP-bound KRAS wild-type protein
[4] = SPR, Single Cycle Kinetics, 1:1 binding model
[5] = SPR Single Cycle Kinetics, 1:1 binding model

Chain of GDP-bound HRAS wild-type protein (P01112 whole entry): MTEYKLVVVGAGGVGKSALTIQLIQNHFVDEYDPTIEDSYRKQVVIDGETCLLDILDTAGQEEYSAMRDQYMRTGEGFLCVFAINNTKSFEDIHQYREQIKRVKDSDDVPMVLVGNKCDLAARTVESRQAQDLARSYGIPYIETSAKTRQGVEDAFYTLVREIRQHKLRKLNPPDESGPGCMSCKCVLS
Chain of GDP-bound KRAS wild-type protein (P01116 whole entry): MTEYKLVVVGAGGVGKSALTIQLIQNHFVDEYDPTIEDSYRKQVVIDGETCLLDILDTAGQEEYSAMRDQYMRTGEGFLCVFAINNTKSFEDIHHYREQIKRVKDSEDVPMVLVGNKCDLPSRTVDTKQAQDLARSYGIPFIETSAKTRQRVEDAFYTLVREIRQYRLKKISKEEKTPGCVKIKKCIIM
Chain of GDP-bound NRAS wild-type protein (P01111 whole entry): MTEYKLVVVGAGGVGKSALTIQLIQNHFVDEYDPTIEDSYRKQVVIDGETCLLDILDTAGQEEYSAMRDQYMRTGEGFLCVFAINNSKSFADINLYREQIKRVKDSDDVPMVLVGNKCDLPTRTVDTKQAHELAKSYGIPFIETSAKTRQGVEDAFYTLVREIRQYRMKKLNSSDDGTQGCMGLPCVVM

Row | SMILES | pKd ([1]; SPR, Single Cycle Kinetics) | pKd [1, 5] | NRAS/KRAS (ratio of KD value for NRAS to KD value for KRAS) [2] | HRAS/KRAS (ratio of KD value for HRAS to KD value for KRAS) [3] | other results
1 | CCO[C@@H]1C[C@H]2C(=O)NC3(CCC3)C(=O)N(C)[C@@H](C3CCCC3)C(=O)N(C)[C@H](C(=O)N(C)CC)CC(=O)N(C)[C@@H](CC)C(=O)N[C@@H]([C@@H](C)CC)C(=O)N(C)CC(=O)N(C)[C@H]3C/C=C\CCN(C3=O)[C@@H](CC3CCC(F)(F)CC3)C(=O)N(C)CC(=O)N[C@@H](CCc3cc(F)c(C(F)(F)F)c(F)c3)C(=O)N2C1 [PP1553, (2S,8S,12R,14S,20S,23S,27S,30S,36S,38Z)-20-cyclopentyl-2-[(4,4-difluorocyclohexyl)methyl]-8-[2-[3,5-difluoro-4-(trifluoromethyl)phenyl]ethyl]-12-ethoxy-N,27-diethyl-N,4,19,22,26,32,35-heptamethyl-30-[(1S)-1-methylpropyl]-3,6,9,15,18,21,25,28,31,34,42-undecaoxo-spiro[1,4,7,10,16,19,22,26,29,32,35-undecazatricyclo[34.5.1.0^10,14]dotetracont-38-ene-17,1′-cyclobutane]-23-carboxamide] | – | – | – | – | pKd [1, 4]: 9.89; NRAS/KRAS (ratio of KD value for NRAS to KD value for KRAS) ([2]; KD ratio class): A (a compound having 10 or more and less than 20 is denoted as A); HRAS/KRAS (ratio of KD value for HRAS to KD value for KRAS) ([3]; KD ratio class): A (a compound having 10 or more and less than 20 is denoted as A)
2 | CC[C@H](C)[C@@H]1NC(=O)[C@H](CC2CC2)N(C)C(=O)C[C@@H](C(=O)N(C)C)N(C)C(=O)[C@H](C2CCCC2)N(C)C(=O)C2(CCCC2)NC(=O)[C@@H]2CC(F)(F)CN2C(=O)[C@H](CCc2cc(F)c(C(F)(F)F)c(F)c2)NC(=O)CN(C)C(=O)[C@H](Cc2ccc(C(F)(F)F)cc2)N2CC/C=C\C[C@@H](C2=O)N(C)C(=O)CN(C)C1=O [PP1513, (2S,8S,14S,20S,23S,27S,30S,36S,38Z)-20-cyclopentyl-27-(cyclopropylmethyl)-8-[2-[3,5-difluoro-4-(trifluoromethyl)phenyl]ethyl]-12,12-difluoro-N,N,4,19,22,26,32,35-octamethyl-30-[(1S)-1-methylpropyl]-3,6,9,15,18,21,25,28,31,34,42-undecaoxo-2-[[4-(trifluoromethyl)phenyl]methyl]spiro[1,4,7,10,16,19,22,26,29,32,35-undecazatricyclo[34.5.1.0^10,14]dotetracont-38-ene-17,1′-cyclopentane]-23-carboxamide] | – | – | – | – | pKd [1, 4]: 10.15; NRAS/KRAS (ratio of KD value for NRAS to KD value for KRAS) ([2]; KD ratio class): A (a compound having 10 or more and less than 20 is denoted as A); HRAS/KRAS (ratio of KD value for HRAS to KD value for KRAS) ([3]; KD ratio class): A (a compound having 10 or more and less than 20 is denoted as A)
3 | CC[C@H](C)[C@@H]1NC(=O)[C@H](CC(C)C)N(C)C(=O)C[C@@H](C(=O)N2CCOCC2)N(C)C(=O)[C@H](C2CCCC2)N(C)C(=O)C2(CCCC2)NC(=O)[C@@H]2CCCN2C(=O)[C@H](CCc2ccc(C(F)(F)F)c(Cl)c2)NC(=O)CN(C)C(=O)[C@H](Cc2ccc(C)cc2)N(CC2CCC2)C(=O)CN(C)C(=O)CN(C)C1=O [PP0095] ([NMeL]I[Sar][Sar][X42][Sar][hPhe(3-Cl-4-CF3)]P[Ac5c][NMeGly(cPent)][NMeD]-Morpholide; lactam N-11) | – | 9.10 | C (A compound having a KD ratio of 0.1 or more and less than 3 is denoted as C) | C (A compound having a KD ratio of 0.1 or more and less than 3 is denoted as C) | –
4 | C#CC[C@H]1C(=O)N[C@@H]([C@@H](C)CC)C(=O)N(C)CC(=O)N(C)[C@H]2CCCCCN(C2=O)[C@@H](Cc2ccc(C(F)(F)F)cc2)C(=O)N(C)CC(=O)N[C@@H](CCc2cc(F)c(C(F)(F)F)c(F)c2)C(=O)N2C[C@H](OCC)C[C@H]2C(=O)NC2(CCC2)C(=O)N(C)[C@@H](C2CCCC2)C(=O)N(C)[C@H](C(=O)N(C)C)CC(=O)N1C [PP0666] | – | 9.48 | – | – | NRAS/KRAS (ratio of KD value with respect to NRAS to KD value with respect to KRAS) [2]: B (a compound having 3 or more and less than 10 is denoted as B); HRAS/KRAS (ratio of KD value with respect to HRAS to KD value with respect to KRAS) [3]: B (a compound having 3 or more and less than 10 is denoted as B)
5 | CC[C@H](C)[C@@H]1NC(=O)[C@H](CC(C)C)N(C)C(=O)C[C@@H](C(=O)N2CCOCC2)N(C)C(=O)[C@H](C2CCCC2)N(C)C(=O)C2(CCCC2)NC(=O)[C@@H]2CCCN2C(=O)[C@H](CCc2cc(F)c(C(F)(F)F)c(F)c2)NC(=O)CN(C)C(=O)[C@H](Cc2ccc(C(F)(F)F)cc2)N2CCCCC[C@@H](C2=O)N(C)C(=O)CN(C)C1=O [PP0490] | – | 8.62 | – | – | NRAS/KRAS (ratio of KD value with respect to NRAS to KD value with respect to KRAS) [2]: B (a compound having 3 or more and less than 10 is denoted as B); HRAS/KRAS (ratio of KD value with respect to HRAS to KD value with respect to KRAS) [3]: B (a compound having 3 or more and less than 10 is denoted as B)
6 | CC[C@H](C)[C@@H]1NC(=O)[C@H](CC(C)C)N(C)C(=O)C[C@@H](C(=O)N2CCOCC2)N(C)C(=O)[C@H](C2CCCC2)N(C)C(=O)C2(CCCC2)NC(=O)[C@@H]2C[C@H](O)CN2C(=O)[C@H](CCc2cc(F)c(C(F)(F)F)c(F)c2)NC(=O)CN(C)C(=O)[C@H](Cc2ccc(C(F)(F)F)cc2)N2CCCC[C@@H](C2=O)N(C)C(=O)CN(C)C1=O [PP0556] | – | 10.62 | – | – | NRAS/KRAS (ratio of KD value with respect to NRAS to KD value with respect to KRAS) [2]: C (A compound having a KD ratio of 0.1 or more and less than 3 is denoted as C); HRAS/KRAS (ratio of KD value with respect to HRAS to KD value with respect to KRAS) [3]: B (a compound having 3 or more and less than 10 is denoted as B)
7 | CCCN1C(=O)[C@@H]2CCN2C(=O)[C@H](C)N(C)C(=O)[C@H]([C@@H](C)CC)NC(=O)[C@H](CC(C)C)N(C)C(=O)C[C@@H](C(=O)N2CCOCC2)N(C)C(=O)[C@H](C2CCCC2)N(C)C(=O)C2(CC2)NC(=O)[C@@H]2CCCN2C(=O)[C@H](CCc2ccc(C(F)(F)F)c(Cl)c2)NC(=O)CN(C)C(=O)[C@@H]1Cc1ccc(C(F)(F)F)cc1 [PP0224] ([NMeL]I[NMeA][Aze][NPrPhe(4-CF3)][Sar][hPhe(3-Cl-4-CF3)]P[Ac3c][NMeGly(cPent)][NMeD]-Morpholide; lactam N-11) | – | 9.66 | C (A compound having a KD ratio of 0.1 or more and less than 3 is denoted as C) | B (a compound having 3 or more and less than 10 is denoted as B) | –
8 | CCO[C@@H]1C[C@H]2C(=O)NC3(CCC3)C(=O)N(C)[C@@H](C3CCCC3)C(=O)N(C)[C@H](C(=O)N(C)C)CC(=O)N(C)[C@@H](CC)C(=O)N[C@@H]([C@@H](C)CC)C(=O)N3CC[C@H]3C(=O)N(C)[C@H]3C[C@@H](C)CCN(C3=O)[C@@H](Cc3ccc(C(F)(F)F)cc3)C(=O)N(C)CC(=O)N[C@@H](CCc3cc(F)c(C(F)(F)F)c(F)c3)C(=O)N2C1 [PP1021] | 10.24 | – | C (A compound having a KD ratio of 0.1 or more and less than 3 is denoted as C) | B (a compound having 3 or more and less than 10 is denoted as B) | –

More lines, main results first:

Row | pKd ([1]; SPR, Single Cycle Kinetics) | pKd [1, 5] | SMILES | NRAS/KRAS (ratio of KD value for NRAS to KD value for KRAS) [2] | HRAS/KRAS (ratio of KD value for HRAS to KD value for KRAS) [3] | other results
9 | 9.80 | – | C#CCN1CC(=O)N(C)[C@H]2C/C=C\CCN(C2=O)[C@@H](Cc2ccc(C)cc2)C(=O)N(C)CC(=O)N[C@@H](CCc2cc(F)c(C(F)(F)F)c(F)c2)C(=O)N2C[C@H](OCC)C[C@H]2C(=O)NC2(CC(C)(C)C2)C(=O)N(C)[C@@H](C2CCCC2)C(=O)N(C)[C@H](C(=O)N(C)C)CC(=O)N(C)[C@@H](CC(C)C)C(=O)N[C@@H]([C@@H](C)CC)C1=O [PP2052] | A (a compound having 10 or more and less than 20 is denoted as A) | A (a compound having 10 or more and less than 20 is denoted as A) | –
10 | 9.07 | – | CCO[C@@H]1C[C@H]2C(=O)NC3(CCC3)C(=O)N(C)[C@@H](C3CCCC3)C(=O)N(C)[C@H](C(=O)N(C)C)CC(=O)N(C)[C@@H](CC(C)C)C(=O)N[C@@H]([C@@H](C)CC)C(=O)N3CC[C@H]3C(=O)N(C)[C@H]3CC(C)=C(C)CN(C3=O)[C@@H](Cc3ccc(C(F)(F)F)cc3)C(=O)N(C)CC(=O)N[C@@H](CCc3cc(F)c(C(F)(F)F)c(F)c3)C(=O)N2C1 [PP1047] | C (A compound having a KD ratio of 0.1 or more and less than 3 is denoted as C) | C (A compound having a KD ratio of 0.1 or more and less than 3 is denoted as C) | –
11 | 10.19 | – | CCO[C@@H]1C[C@H]2C(=O)NC3(CCC3)C(=O)N(C)[C@@H](C3CCCC3)C(=O)N(C)[C@H](C(=O)N(C)CC)CC(=O)N(C)[C@H]3CCC/C=C/c4ccc(cc4)C[C@@H](C(=O)N(C)CC(=O)N[C@@H](CCc4ccc(C(F)(F)F)c(OC)c4)C(=O)N2C1)N1CC/C=C\C[C@@H](C1=O)N(C)C(=O)CN(C)C(=O)[C@H]([C@@H](C)CC)NC3=O [PP1834] | – | – | NRAS/KRAS (KD ratio) ([2]; ratio of KD for GDP-bound NRAS wild-type protein to KD for KRAS): A (a compound having 10 or more and less than 20 is denoted as A); HRAS/KRAS (KD ratio) ([3]; ratio of KD for GDP-bound HRAS wild-type protein to KD for KRAS): B (a compound having 3 or more and less than 10 is denoted as B)
12 | 9.70 | – | CCO[C@@H]1C[C@H]2C(=O)NC3(CC(C)(C)C3)C(=O)N(C)[C@@H](C(CC)CC)C(=O)N(C)[C@H](C(=O)N(C)C)CC(=O)N(C)[C@@H](CC(C)C)C(=O)N[C@@H]([C@@H](C)CC)C(=O)N(C)CC(=O)N(C)[C@H]3C/C=C\CCN(C3=O)[C@@H](Cc3ccc(C(F)(F)F)cc3)C(=O)N(C)CC(=O)N[C@@H](CCc3ccc(C(F)(F)F)c(OC)c3)C(=O)N2C1 [PP2161] | AA (a compound having 20 or more is denoted as AA) | A (a compound having 10 or more and less than 20 is denoted as A) | –
